Laboratory results: ChEMBL document CHEMBL1201862, “PubChem BioAssay data set” (2004)
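Grown in 96-well plates, cells were treated for 48 hours with each compound at five concentrations. Insufficient inhibition: endpoint recorded as highest concentration tested. At the GI50, growth is halved.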 Activity calls are given as the source filed them. Rule as the data show it: active = GI50 up to about 1.1 µM and inactive = higher.

Experiments:
Experiment in all cases: DTP human tumour cell line panel, 48 h
M14 = test system: M14
OVCAR-5 = test system: OVCAR-5
SK-OV-3 = test system: SK-OV-3
COLO 205 = test system: COLO 205
SF-539 = test system: SF-539
CAKI-1 = test system: CAKI-1
SNB-19 = test system: SNB-19
SNB-75 = test system: SNB-75
SF-295 = test system: SF-295
MDA-N = test system: MDA-N
IGROV-1 = test system: IGROV-1
A549 = test system: A549
NCI-H522 = test system: NCI-H522
SK-MEL-5 = test system: SK-MEL-5
Hs-578T = test system: Hs-578T
KM12 = test system: KM12
Malme-3M = test system: Malme-3M
ACHN = test system: ACHN
A498 = test system: A498
MCF7 = test system: MCF7
DU-145 = test system: DU-145
U-251 = test system: U-251
NCI-H226 = test system: NCI-H226
MDA-MB-435 = test system: MDA-MB-435
786-0 = test system: 786-0
HOP-62 = test system: HOP-62
SR = test system: SR
HOP-92 = test system: HOP-92
MDA-MB-231 = test system: MDA-MB-231
RXF 393 = test system: RXF 393
LOX IMVI = test system: LOX IMVI
SN12C = test system: SN12C
SK-MEL-2 = test system: SK-MEL-2
UACC-257 = test system: UACC-257
NCI-H23 = test system: NCI-H23
NCI-H460 = test system: NCI-H460
UACC-62 = test system: UACC-62
TK-10 = test system: TK-10
OVCAR-3 = test system: OVCAR-3
K562 = test system: K562
SK-MEL-28 = test system: SK-MEL-28
HL-60 = test system: HL-60
HCT-116 = test system: HCT-116
CCRF-CEM = test system: CCRF-CEM
SF-268 = test system: SF-268
MOLT-4 = test system: MOLT-4
EKVX = test system: EKVX
SW-620 = test system: SW-620
OVCAR-4 = test system: OVCAR-4
PC-3 = test system: PC-3
HCT-15 = test system: HCT-15
RPMI-8226 = test system: RPMI-8226
OVCAR-8 = test system: OVCAR-8
HT-29 = test system: HT-29
NCI/ADR-RES = test system: NCI/ADR-RES
HCC 2998 = test system: HCC 2998
UO-31 = test system: UO-31
T47D = test system: T47D

For `CCN(CC)C(=S)N/N=C1\C(=O)Nc2ccccc21`, the GI50 (M14) was 0.586 µM (active), the GI50 (OVCAR-5) was 6.18 µM (inactive) and the GI50 (SK-OV-3) was 3.05 µM (inactive). For the same molecule, the GI50 (COLO 205) was 0.659 µM (active), the GI50 (SF-539) was 0.468 µM (active) and the GI50 (CAKI-1) was 0.895 µM (active). The GI50 (SNB-19) was 1.69 µM (inactive), the GI50 (SNB-75) was 1.31 µM (inactive) and the GI50 (SF-295) was 0.45 µM (active). The GI50 (MDA-N) was 2.01 µM (inactive), the GI50 (IGROV-1) was 0.239 µM (active) and the GI50 (A549) was 0.638 µM (active). The GI50 (NCI-H522) was 3.03 µM (inactive), the GI50 (SK-MEL-5) was 0.193 µM (active) and the GI50 (Hs-578T) was 0.771 µM (active). For the same molecule, the GI50 (KM12) was 0.451 µM (active), the GI50 (Malme-3M) was 0.298 µM (active) and the GI50 (ACHN) was 0.42 µM (active). The GI50 (A498) was 1.25 µM (inactive), the GI50 (MCF7) was 0.397 µM (active) and the GI50 (DU-145) was > 100 µM (inactive). The GI50 (U-251) was 1.41 µM (inactive), the GI50 (NCI-H226) was 0.59 µM (active) and the GI50 (MDA-MB-435) was 2.51 µM (inactive). The GI50 (786-0) was 0.432 µM (active), the GI50 (HOP-62) was 0.431 µM (active) and the GI50 (SR) was 0.968 µM (active). The GI50 (HOP-92) was 2.79 µM (inactive), the GI50 (MDA-MB-231) was 1.14 µM (inactive) and the GI50 (RXF 393) was 1.3 µM (inactive). The GI50 (LOX IMVI) was 0.495 µM (active), the GI50 (SN12C) was 1.46 µM (inactive) and the GI50 (SK-MEL-2) was 2.65 µM (inactive). The GI50 (UACC-257) was 1.64 µM (inactive), the GI50 (NCI-H23) was 2.9 µM (inactive) and the GI50 (NCI-H460) was 0.406 µM (active). The GI50 (UACC-62) was 1.31 µM (inactive), the GI50 (TK-10) was 0.348 µM (active) and the GI50 (OVCAR-3) was 0.192 µM (active). For the same molecule, the GI50 (K562) was 0.562 µM (active), the GI50 (SK-MEL-28) was > 100 µM (inactive) and the GI50 (HL-60) was 0.338 µM (active). For the same molecule, the GI50 (HCT-116) was 0.386 µM (active), the GI50 (CCRF-CEM) was 0.347 µM (active) and the GI50 (SF-268) was > 100 µM (inactive). The GI50 (MOLT-4) was 0.653 µM (active), the GI50 (EKVX) was 1.36 µM (inactive) and the GI50 (SW-620) was 0.493 µM (active). For the same molecule, the GI50 (OVCAR-4) was 0.771 µM (active), the GI50 (PC-3) was 0.334 µM (active) and the GI50 (HCT-15) was 0.413 µM. The GI50 (RPMI-8226) was 0.355 µM (active), the GI50 (OVCAR-8) was 0.813 µM (active) and the GI50 (HT-29) was 1.18 µM (inactive). For the same molecule, the GI50 (NCI/ADR-RES) was 0.152 µM (active).
In the case of `COc1ccc(/C=C2\Sc3nnc(CNc4ccc(Cl)cc4)n3N=C2c2cc(F)c(Cl)cc2Cl)cc1OC`, the GI50 (M14) was 59.8 µM (inactive), the GI50 (OVCAR-5) was 88.9 µM (inactive) and the GI50 (HCC 2998) was 31 µM (inactive). For the same molecule, the GI50 (SK-OV-3) was > 100 µM (inactive), the GI50 (SF-539) was > 100 µM (inactive) and the GI50 (CAKI-1) was 23.6 µM (inactive). For the same molecule, the GI50 (SF-295) was > 100 µM (inactive), the GI50 (MDA-N) was 24 µM (inactive) and the GI50 (IGROV-1) was > 100 µM (inactive). The GI50 (NCI-H522) was 27.7 µM (inactive), the GI50 (SK-MEL-5) was > 100 µM (inactive) and the GI50 (UO-31) was 56.9 µM (inactive). For the same molecule, the GI50 (Hs-578T) was 51.2 µM (inactive), the GI50 (KM12) was 83.8 µM (inactive) and the GI50 (ACHN) was 48.4 µM (inactive). For the same molecule, the GI50 (A498) was > 100 µM (inactive), the GI50 (MCF7) was 23.9 µM (inactive) and the GI50 (DU-145) was 71.6 µM (inactive). The GI50 (U-251) was > 100 µM (inactive), the GI50 (NCI-H226) was > 100 µM (inactive) and the GI50 (MDA-MB-435) was 27.2 µM (inactive). For the same molecule, the GI50 (786-0) was 24.5 µM (inactive), the GI50 (HOP-62) was > 100 µM (inactive) and the GI50 (SR) was 21 µM (inactive). For the same molecule, the GI50 (HOP-92) was 17 µM (inactive), the GI50 (MDA-MB-231) was > 100 µM (inactive) and the GI50 (RXF 393) was 15.8 µM (inactive). The GI50 (LOX IMVI) was 29.3 µM (inactive), the GI50 (SK-MEL-2) was > 100 µM (inactive) and the GI50 (UACC-257) was > 100 µM (inactive). For the same molecule, the GI50 (NCI-H23) was 28.1 µM (inactive), the GI50 (NCI-H460) was 53.6 µM (inactive) and the GI50 (TK-10) was 86.7 µM (inactive). The GI50 (OVCAR-3) was 48.1 µM (inactive), the GI50 (K562) was 19 µM (inactive) and the GI50 (SK-MEL-28) was > 100 µM (inactive). For the same molecule, the GI50 (HL-60) was 45.7 µM (inactive), the GI50 (HCT-116) was 14.8 µM (inactive) and the GI50 (CCRF-CEM) was 4.97 µM (inactive). For the same molecule, the GI50 (SF-268) was 20.6 µM (inactive), the GI50 (MOLT-4) was 10.9 µM (inactive) and the GI50 (EKVX) was > 100 µM (inactive). For the same molecule, the GI50 (SW-620) was 15.8 µM (inactive), the GI50 (OVCAR-4) was 22.5 µM (inactive) and the GI50 (PC-3) was 67.1 µM (inactive). The GI50 (HCT-15) was 15.9 µM, the GI50 (RPMI-8226) was 7.57 µM (inactive) and the GI50 (OVCAR-8) was 24.7 µM (inactive). For the same molecule, the GI50 (HT-29) was 28.6 µM (inactive), the GI50 (T47D) was 44.3 µM (inactive) and the GI50 (NCI/ADR-RES) was 17.9 µM (inactive).
For `O=C(Cn1c(-c2ccccc2)cc2ccccc21)N1CCOCC1`, the GI50 (M14) was > 100 µM (inactive), the GI50 (OVCAR-5) was > 100 µM (inactive) and the GI50 (HCC 2998) was > 100 µM (inactive). For the same molecule, the GI50 (SK-OV-3) was > 100 µM (inactive), the GI50 (COLO 205) was > 100 µM (inactive) and the GI50 (SF-539) was 67.1 µM (inactive). For the same molecule, the GI50 (CAKI-1) was > 100 µM (inactive), the GI50 (SNB-19) was 79.3 µM (inactive) and the GI50 (SF-295) was > 100 µM (inactive). For the same molecule, the GI50 (MDA-N) was > 100 µM (inactive), the GI50 (IGROV-1) was > 100 µM (inactive) and the GI50 (A549) was > 100 µM (inactive). For the same molecule, the GI50 (NCI-H522) was > 100 µM (inactive), the GI50 (SK-MEL-5) was > 100 µM (inactive) and the GI50 (UO-31) was > 100 µM (inactive). The GI50 (Hs-578T) was > 100 µM (inactive), the GI50 (KM12) was > 100 µM (inactive) and the GI50 (Malme-3M) was > 100 µM (inactive). The GI50 (ACHN) was > 100 µM (inactive), the GI50 (A498) was > 100 µM (inactive) and the GI50 (MCF7) was > 100 µM (inactive). For the same molecule, the GI50 (DU-145) was > 100 µM (inactive), the GI50 (U-251) was 45 µM (inactive) and the GI50 (NCI-H226) was > 100 µM (inactive). The GI50 (MDA-MB-435) was > 100 µM (inactive), the GI50 (786-0) was 41.4 µM (inactive) and the GI50 (HOP-62) was 32.7 µM (inactive). The GI50 (HOP-92) was > 100 µM (inactive), the GI50 (MDA-MB-231) was 34.2 µM (inactive) and the GI50 (RXF 393) was > 100 µM (inactive). For the same molecule, the GI50 (LOX IMVI) was > 100 µM (inactive), the GI50 (SN12C) was > 100 µM (inactive) and the GI50 (SK-MEL-2) was > 100 µM (inactive). The GI50 (UACC-257) was > 100 µM (inactive), the GI50 (NCI-H23) was > 100 µM (inactive) and the GI50 (NCI-H460) was > 100 µM (inactive). For the same molecule, the GI50 (UACC-62) was > 100 µM (inactive), the GI50 (TK-10) was > 100 µM (inactive) and the GI50 (OVCAR-3) was > 100 µM (inactive). For the same molecule, the GI50 (K562) was > 100 µM (inactive), the GI50 (SK-MEL-28) was > 100 µM (inactive) and the GI50 (HL-60) was > 100 µM (inactive). For the same molecule, the GI50 (HCT-116) was > 100 µM (inactive), the GI50 (CCRF-CEM) was > 100 µM (inactive) and the GI50 (SF-268) was 34.4 µM (inactive). The GI50 (MOLT-4) was > 100 µM (inactive), the GI50 (EKVX) was > 100 µM (inactive) and the GI50 (SW-620) was > 100 µM (inactive). For the same molecule, the GI50 (OVCAR-4) was > 100 µM (inactive), the GI50 (PC-3) was 61.1 µM (inactive) and the GI50 (HCT-15) was > 100 µM. For the same molecule, the GI50 (RPMI-8226) was > 100 µM (inactive), the GI50 (OVCAR-8) was > 100 µM (inactive) and the GI50 (HT-29) was > 100 µM (inactive). For the same molecule, the GI50 (T47D) was > 100 µM (inactive) and the GI50 (NCI/ADR-RES) was > 100 µM (inactive).
